Laboratory results as given in US20260085315A1, “POLYNUCLEOTIDE COMPOSITIONS AND METHODS FOR TREATMENT OF CANCER” (APTAH BIO, INC., priority 2023, published 2026).
“Also recorded” adds a separate entry of the source. d = 2'-deoxy (DNA); m = 2'-O-methyl

Tests used:
[1] = test system: U87MG (Human Glioblastoma); experiment: MTT viability assay 48/96/144 h (Example 5); type: cell-based; settings: 0.003-30 μM tested
Experimental: In vitro effects of APT20TTMG on viability and proliferation of human cancer cell line U87MG (Human Glioblastoma) were also evaluated by MTT and BrdU assays, respectively. Cells were treated with APT20TTMG and Reference Items in technical triplicates (Experiment was done in 3 different sets) at various concentrations for 48 h, 96 h, and 144 h. APT20TTMG and Reference Items were read after every 48 h.
As shown in FIGS. 32-33, A MTT assay (FIG. 32) was also performed with another five different concentrations of APT20TTMG (0.003, 0.03, 0.3, 3, and 30 μM) and at 48, 96, and 144 hours of incubation. […] Finally, to confirm whether APT20TTMG is a cytotoxic or cytostatic molecule considering its ability to reduce cellular viability in certain concentrations, a cell proliferation assay (FIG. 33) with the U87-MG cell line was also performed in the same conditions as the MTT assay. […] Cells were plated and treated with 5 different concentrations (0.003, 0.03, 0.3, 3, and 30 μM). BrdU assay was performed after 48, 96, or 144 hours of incubation. Data are plotted as a percentage (%) of cell viability compared to the negative control group (vehicle). Results are expressed as Mean±SEM of three independent experiments performed in three technical replicates. […]

[2] = test system: Human Glioblastoma Cancer (U-87MG) xenograft; experiment: Human glioblastoma xenograft tumor growth; type: in vivo, athymic nude mice; settings: for tumor reduction in relation to the negative control: APT20TTMG 20 mg/kg i.v. q3d, TMZ 5 mg/kg p.o. daily
Experimental: Subcutaneous inoculation of the tumorigenic Human Glioblastoma Cancer Cell line (U-87MG) results in the formation of solid tumor in athymic nude mice. Under pathogen free conditions, the tumor retains its own characteristics and grows using the growth factors supplied by the host animal. The ability of administered ASMO1 to inhibit the growth of tumor can be a valuable tool to evaluate its efficacy as an anti-tumor agent. Measurement of tumor size at defined intervals of time generates data that can be used to calculate various end point parameters derived from tumor and understand the potency of the test compounds.
Human glioblastoma cancer cells (U-87MG) were cultured and expanded in EMEM (Eagle's Minimum Essential Medium) supplemented with 10% Fetal Bovine Serum (FBS) at 37° C. and 5% CO2. The cells growing at log phase were harvested by trypsinization and centrifuged for 3 minutes at 800 rpm to form a pellet. The pellet was further washed with PBS. Cell suspension stock was prepared to obtain the required cell count. Before cell inoculation, cell viability was determined using trypan blue. 25 μL of cell suspension was stained with 25 μL of trypan blue and viable cells were counted using Neubauer's chamber. Cell number was adjusted by adding serum free media to achieve desired concentration, i.e., 10×10^7/mL.
Cells were diluted such that the concentration of the cells was 10 million cells/100 μL of serum free medium. Overnight thawed Matrigel and cells with medium were mixed 1:1 and a total volume of 200 μL was injected subcutaneously to the donor animals (n=5) at flank region.
Donor animals were monitored for solid tumor growth for at least 3-4 weeks. Tumor size was measured using digital caliper (MITUTOYO, Japan, CP-15Mx) and volume was calculated by using the formula: (L*W2)/2. Once the tumor reached required size ˜500 mm^3, the donor animals were humanely sacrificed, the tumor was harvested and fragmented into ˜30 mg size and implanted subcutaneously to experimental animals (n=50) using the device. All the animals was monitored alternate day for tumor growth/size.
Once the tumor size reached ˜100 mm^3, animals were selected and randomized by stratification method using tumor size into three groups (G1-G3). Treatment for G1-G3 was initiated at this stage. Each group was comprised of 8 animals.
• G1 was served as vehicle control group and treated with normal saline at the dose of 5 mL/kg, daily, intravenously for 3 weeks. • G2 was served as Reference Item treated group and treated with TMZ at the dose of 5 mg/kg, p.o., daily for 3 weeks. • G3 was treated with APT20TTMG at the dose of 20 mg/kg, intravenously, every third day (q3d) for 3 weeks.
Body weight and tumor size were measured weekly twice using digital caliper. At termination, blood was collected through retro-orbital route. Serum/plasma was separated and stored at deep freezer (−20° C.). Post blood collection, animals were humanely sacrificed by CO2 asphyxiation as per latest guidelines issued by CPCSEA. All the vital organ (brain, kidney, liver, lungs, heart) and tumor were dissected out. Vital organs were fixed in 10% NBF and stored. Tumor tissue was dissected out, weighed and portion of tumor tissue was fixed in 10% NBF and another portion is snap frozen and stored at deep freezer (−80° C.).
As shown in FIG. 34A-C, tumor fragments from the U-87MG cell line were implanted in the animals and once the tumor size reached ˜100 mm^3 animals were randomized into 3 experimental groups (G1, G2, and G3). G1: Vehicle, (G2) Reference Item Temozolomide, and (G3) APT20TTMG for a total of 22 days. (A) The tumor volume of the animals was measured twice/a week. (B) Animals were weighed throughout the experiment and the change in weight gain compared to pre-treatment weight was plotted. (C) After the euthanasia of the animals, the tumors were removed and weighed.

SH-SY5Y cell line = experiment: MTT mitochondrial activity / cell viability; type: cell-based, Human; settings: any concentration; 24 and 48 hours
Experimental: FIG. 22A-22B illustrates the evaluation of mitochondrial activity in SH-SY5Y cell line after incubation in ASMO1. MTT assay was performed after 24 hours (FIG. 22A) and 48 hours (FIG. 22B) of incubation.

With “APT20TTMG: engineered polynucleotide ASMO1, 24 nt, SEQ ID NO: 3 gtccactaacctttcaggccagcg; targeting moieties 5′-GTCCA-3′ and 5′-CG-3′, U1 snRNP recruiting moiety (GTCCACTAACCTTTCAGGCCAGCG; sugars from the 5' end m5 d14 m5, all phosphorothioate, methylation of C and T or U not given here)” the “concentrations observed to reduce cell viability (MTT)” value ([1]; 96 and 144 hours) was no less than 0.3 µM, the “concentration observed to reduce cell viability (MTT)” value ([1]; 48 hours) was 30 µM and the “tumor growth (tumor volume) vs vehicle group” value ([2]; APT20TTMG 20 mg/kg i.v. every third day 3 weeks, TMZ 5 mg/kg p.o. daily 3 weeks) was “inhibit tumor growth from day 16”. The final tumor weight ([2]; between APT20TTMG, TMZ and vehicle groups, after euthanasia) was “no statistical difference”, the “tumor reduction in relation to the negative control” value ([2]; day 20) was 46.7±10.7% and the “tumor reduction in relation to the negative control” value ([2]; day 22) was 42±13.2%. The “Volume (tumor)” value ([2]; individual animals, G3 APT20TTMG, G2 TMZ) was “Volume 321.5; also recorded: Volume 768.1; also recorded: Volume 796.8; also recorded: Volume 62.3; also recorded: Volume 1441.5; also recorded: Volume 953.5” and the “cell viability (MTT)” value (SH-SY5Y cell line) was “no change in cell viability”.
